According to US6479506B1 (dated 2002):

melting point	Structure (SMILES)
188 to 190 °C	COC(=O)c1cc2nnn(-c3ccccc3)c2nc1OCc1ncnn1C
142 to 145 °C	Cn1ncnc1COc1nc2c(cc1-c1ccc(F)cc1)nnn2-c1ccccc1F
170 to 173 °C	Cn1ncnc1COc1nc2c(cc1-c1ccco1)nnn2-c1ccccc1F
145 to 146 °C	Cn1ncnc1COc1nc2c(cc1-c1ccoc1)nnn2-c1ccccc1F
174 to 176 °C	Cn1cnc(COc2nc3c(cc2-c2ccsc2)nnn3-c2ccccc2F)n1
179 to 181 °C	Cn1cnc(COc2nc3c(cc2-c2cccs2)nnn3-c2ccccc2F)n1
137 to 140 °C	Cn1ncnc1COc1nc2c(cc1-c1cccc(F)c1)nnn2-c1c(F)cccc1F
166 to 169 °C	Cn1ncnc1COc1nc2c(cc1-c1ccoc1)nnn2-c1c(F)cccc1F
165 to 167 °C	Cn1ncnc1COc1nc2c(cc1C(C)(C)C)nnn2-c1ccccc1
179 to 180 °C	Cn1cnc(COc2nc3c(cc2C(C)(C)C)nnn3-c2ccccc2)n1
115 to 117 °C	Cn1ncnc1COc1nc2c(cc1C(C)(C)C)nnn2-c1ccccc1F
127 to 129 °C	CCCn1ncnc1COc1nc2c(cc1C(C)(C)C)nnn2-c1ccccc1F
127 to 129 °C	Cn1cnc(COc2nc3c(cc2C(C)(C)C)nnn3-c2ccccc2F)n1
148 to 150 °C	CCn1ncnc1COc1nc2c(cc1C(C)(C)C)nnn2-c1cc(F)ccc1F
144 to 146 °C	Cn1ncnc1COc1nc2c(cc1-c1ccccc1)nnn2-c1ccccc1F
105 to 108 °C	Cn1ncnc1COc1nc2c(cc1C(C)(C)C)nnn2-c1c(F)cccc1F
116 to 118 °C	COc1cccc(F)c1-n1nnc2cc(C(C)(C)C)c(OCc3ncnn3C)nc21
188 to 190 °C	Cn1ncnc1COc1nc2c(nnn2-c2ccccc2)c2ccccc12
192 to 195 °C	CCn1ncnc1COc1nc2c(nnn2-c2ccccc2)c2ccccc12
154 to 156 °C	CCCn1ncnc1COc1nc2c(nnn2-c2ccccc2)c2ccccc12
189 to 190 °C	Cn1cnc(COc2nc3c(nnn3-c3ccccc3)c3ccccc23)n1
147 to 150 °C	c1ccc(-n2nnc3c4ccccc4c(OCc4ccccn4)nc32)cc1
133 to 135 °C	Cn1ncnc1COc1nc2c(cc1-c1ccsc1)nnn2-c1ccccc1F
130 to 133 °C	Cn1ncnc1COc1nc2c(cc1CC(C)(C)C)nnn2-c1ccccc1F
120 to 122 °C	Cn1ncnc1COc1nc2c(cc1C1CCC1)nnn2-c1ccccc1F
140 to 144 °C	Cn1ncnc1COc1nc2c(cc1C1CCC1)nnn2-c1c(F)cccc1F (hydrate or solvate)
